In PubChem BioAssay AID1963969 (Molecular Pharmacology Branch, DTP, NCI, 2024):
Values joined by “and” are separate entries in the source; they are usually repeats but may differ in a detail not shown here. Equal values may be shown once. One block for each compound: values may come before it.

System: 817829-284-R-J1-PDC multi-cell spheroid viability
Test: Anticancer human tumor 817829-284-R-J1-PDC patient-derived colon adenocarcinoma cell line growth inhibition [PI3K]
Settings: for viability, T/C: stronger effect = lower value
Source text: Combinatorial screen of targeted agents with the PI3K inhibitors inavolisib, alpelisib, duvelisib, and copanlisib in multi-cell type tumor spheroids
A high-throughput screen of multi-cell type tumor spheroids was designed to identify active combinations of targeted small molecules and PI3K pathway inhibitors. Complex spheroids include a stromal component modeled by human endothelial cells (HUVEC) and fibroblasts modeled by human mesenchymal stem cells (MSCs). The concentration ranges selected for each drug and investigational agent were based upon clinically achievable concentrations if the clinical Cmax of the agent was known.
Compounds. The drugs and investigational agents: inavolisib (NSC800729), alpelisib (NSC765974), duvelisib (NSC772469), copanlisib (NSC816437), ipatasertib (NSC767898), afuresertib (NSC778305), talazoparib (NSC767125), sapanisertib (NSC764658), selumetinib (NSC741078), tovorafenib (DAY101, NSC766906), vemurafenib (NSC761431), ravoxertinib (NSC781343), sotorasib (NSC818433), MRTX1133 (NSC 836407), abemaciclib (NSC 768073), palbociclib (NSC758247), venetoclax (NSC 766270), SY5609 (NSC837396), enzalutamide (NSC755605), and darolutamide (NSC825331), were obtained from the National Cancer Institute (NCI) Developmental Therapeutics Program Chemical Repository. The FDA-approved anticancer drug set is available from the NCI Developmental Therapeutics Program. […] The stock solutions were prepared in dimethyl sulfoxide (DMSO, Sigma-Aldrich, St. Louis, MO, cat. D2650) at 800-fold the tested concentration and stored at -70 degrees C prior to their use. All drugs and investigational agents were tested over a range starting from a high concentration at or near the clinical Cmax and decreasing in half-log increments. If the clinical Cmax for an agent had not been determined, the highest concentration tested was 10 microM.
Cell Culture. All cells were maintained in an incubator at 37 degrees C and 5% CO2 with 95% humidity. The PDC lines were cultured according to standard operating procedures established by the NCI PDMR (https://pdmr.cancer.gov/sops/default.htm). All PDCs were thawed and cultured in Matrigel-coated flasks prepared with a working solution of 1X Ham's F-12 nutrient mix, without supplementation (Invitrogen, Waltham, MA, cat. 11765054), 100 U/mL penicillin-streptomycin (Invitrogen, cat. 15140122), and 2.5% Matrigel (Corning Inc., Corning, NY, cat. 354248) for the first three passages. The 354836-022-R-J1-PDC, 475296-252-R-J1-PDC, and 997726-040-R-J2-PDC lines were cultured in 6A media, which includes advanced DMEM/F-12 (Thermo Fisher Scientific, cat. 12634028), 10 mM HEPES (Thermo Fisher Scientific, cat. 15630080), 1X GlutaMAX supplement (Thermo Fisher Scientific, cat. 35050061), 0.1 mg/mL primocin (InvivoGen, San Diego, CA, cat. ant-pm-2), 10% defined fetal bovine serum, heat inactivated (HyClone Laboratories Inc., Logan, UT, cat. SH30070.03HI), 50% L-WRN conditioned media (ATCC, cat. CRL-3276), 1.25 mM N-Acetyl-L-cysteine (Sigma-Aldrich, cat. A9165), 10 mM nicotinamide (Sigma-Aldrich, cat. N0636), 1X B-27 supplement (Thermo Fisher Scientific, cat. 17504044), 1X N-2 supplement (Thermo Fisher Scientific, cat. 17502048), and 10 microM Y-27632 dihydrochloride (Tocris Bioscience, Bristol, United Kingdom, cat. 1254). The 624824-186-R-J2-PDC line was cultured in 6C/Colon 1B media, which includes all 6A media components plus 50 ng/mL human EGF recombinant protein (Thermo Fisher Scientific, cat. PHG0311). […]

[1] = curve of first compound, second compound 0.0316 µM
[2] = curve of first compound, second compound 0.1 µM
[3] = curve of first compound, second compound 0.316 µM
[4] = curve of first compound, second compound 1 µM
[5] = second compound 0.0316 µM, first compound 0.0316 µM
[6] = second compound 0.0316 µM, first compound 0.1 µM
[7] = second compound 0.0316 µM, first compound 0.316 µM
[8] = second compound 0.0316 µM, first compound 1 µM
[9] = second compound 0.0316 µM, first compound 3.16 µM
[10] = second compound 0.0316 µM, first compound 10 µM
[11] = second compound 0.1 µM, first compound 0.0316 µM
[12] = second compound 0.1 µM, first compound 0.1 µM
[13] = second compound 0.1 µM, first compound 0.316 µM
[14] = second compound 0.1 µM, first compound 1 µM
[15] = second compound 0.1 µM, first compound 3.16 µM
[16] = second compound 0.1 µM, first compound 10 µM
[17] = second compound 0.316 µM, first compound 0.0316 µM
[18] = second compound 0.316 µM, first compound 0.1 µM
[19] = second compound 0.316 µM, first compound 0.316 µM
[20] = second compound 0.316 µM, first compound 1 µM
[21] = second compound 0.316 µM, first compound 3.16 µM
[22] = second compound 0.316 µM, first compound 10 µM
[23] = second compound 1 µM, first compound 0.0316 µM
[24] = second compound 1 µM, first compound 0.1 µM
[25] = second compound 1 µM, first compound 0.316 µM
[26] = second compound 1 µM, first compound 1 µM
[27] = second compound 1 µM, first compound 3.16 µM
[28] = second compound 1 µM, first compound 10 µM
[29] = curve of first compound, second compound 3.16 µM
[30] = curve of first compound, second compound 10 µM
[31] = second compound 3.16 µM, first compound 0.0316 µM
[32] = second compound 3.16 µM, first compound 0.1 µM
[33] = second compound 3.16 µM, first compound 0.316 µM
[34] = second compound 3.16 µM, first compound 1 µM
[35] = second compound 3.16 µM, first compound 3.16 µM
[36] = second compound 3.16 µM, first compound 10 µM
[37] = second compound 10 µM, first compound 0.0316 µM
[38] = second compound 10 µM, first compound 0.1 µM
[39] = second compound 10 µM, first compound 0.316 µM
[40] = second compound 10 µM, first compound 1 µM
[41] = second compound 10 µM, first compound 3.16 µM
[42] = second compound 10 µM, first compound 10 µM
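Also: spheroids exposed to agents for seven days before readout.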
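For viability, T/C in this document: percent of vehicle DMSO control viability which is 100%.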

IC50 (curve of first compound, second compound 0.00316 µM): 4.08 µM
IC50 (curve of first compound, second compound 0.01 µM): 3.7 µM
IC50 [1]: 2.67 µM
IC50 [2]: 0.605 µM
IC50 [3]: 0.0316 µM
IC50 [4]: 2.79 µM
Compound: CC1(C)CCC(CN2CCN(c3ccc(C(=O)NS(=O)(=O)c4ccc(NCC5CCOCC5)c([N+](=O)[O-])c4)c(Oc4cnc5[nH]ccc5c4)c3)CC2)=C(c2ccc(Cl)cc2)C1 + CC(Nc1ccc2c(c1)OCCn1cc(N3C(=O)OCC3C(F)F)nc1-2)C(N)=O
viability, T/C (second compound 0.00316 µM, first compound 0.0316 µM): 74.4%
viability, T/C (second compound 0.00316 µM, first compound 0.1 µM): 87.8%
viability, T/C (second compound 0.00316 µM, first compound 0.316 µM): 38.3%
viability, T/C (second compound 0.00316 µM, first compound 1 µM): 71.4%
viability, T/C (second compound 0.00316 µM, first compound 3.16 µM): 62.4%
viability, T/C (second compound 0.00316 µM, first compound 10 µM): 5.89%
viability, T/C (second compound 0.01 µM, first compound 0.0316 µM): 55.4%
viability, T/C (second compound 0.01 µM, first compound 0.1 µM): 64.8%
viability, T/C (second compound 0.01 µM, first compound 0.316 µM): 106%
viability, T/C (second compound 0.01 µM, first compound 1 µM): 69.1%
viability, T/C (second compound 0.01 µM, first compound 3.16 µM): 57.3%
viability, T/C (second compound 0.01 µM, first compound 10 µM): 5.49%
viability, T/C [5]: 66.2%
viability, T/C [6]: 107%
viability, T/C [7]: 60.8%
viability, T/C [8]: 65.3%
viability, T/C [9]: 49.8%
viability, T/C [10]: 6.29%
viability, T/C [11]: 78.9%
viability, T/C [12]: 54.8%
viability, T/C [13]: 58.1%
viability, T/C [14]: 39.4%
viability, T/C [15]: 39.2%
viability, T/C [16]: 3.75%
viability, T/C [17]: 45.7%
viability, T/C [18]: 44.6%
viability, T/C [19]: 59.5%
viability, T/C [20]: 41.2%
viability, T/C [21]: 60.4%
viability, T/C [22]: 3.08%
viability, T/C [23]: 77.2%
viability, T/C [24]: 44%
viability, T/C [25]: 70.8%
viability, T/C [26]: 59%
viability, T/C [27]: 49%
viability, T/C [28]: 6.25%

IC50 (curve of compound): 0.179 µM and 0.168 µM
Compound: CC(C)NCC(C(=O)N1CCN(c2ncnc3c2C(C)CC3O)CC1)c1ccc(Cl)cc1 (stereo not given)
viability, T/C (compound 0.0316 µM): 74.6% and 90.4%
viability, T/C (compound 0.1 µM): 61.1% and 54.8%
viability, T/C (compound 0.316 µM): 38.5% and 41.4%
viability, T/C (compound 1 µM): 28% and 27.8%
viability, T/C (compound 3.16 µM): 21% and 17.3%
viability, T/C (compound 10 µM): 10.7% and 10.9%

IC50 [1]: > 10 µM
IC50 [2]: > 10 µM
IC50 [3]: > 10 µM
IC50 [4]: > 10 µM
IC50 [29]: > 10 µM
IC50 [30]: < 0.0316 µM
Compound: C[C@@H](NC(=O)c1ncnc(N)c1Cl)c1ncc(C(=O)Nc2cc(C(F)(F)F)c(Cl)cn2)s1 + Cc1nc(NC(=O)N2CCCC2C(N)=O)sc1-c1ccnc(C(C)(C)C(F)(F)F)c1
viability, T/C [5]: 106%
viability, T/C [6]: 74.4%
viability, T/C [7]: 71.9%
viability, T/C [8]: 68.5%
viability, T/C [9]: 96.3%
viability, T/C [10]: 88.2%
viability, T/C [11]: 77.5%
viability, T/C [12]: 86.3%
viability, T/C [13]: 81.1%
viability, T/C [14]: 72.4%
viability, T/C [15]: 70.7%
viability, T/C [16]: 83%
viability, T/C [17]: 79.8%
viability, T/C [18]: 85.9%
viability, T/C [19]: 61.9%
viability, T/C [20]: 59.4%
viability, T/C [21]: 80.7%
viability, T/C [22]: 65.6%
viability, T/C [23]: 56%
viability, T/C [24]: 86.5%
viability, T/C [25]: 74.9%
viability, T/C [26]: 96.6%
viability, T/C [27]: 61.9%
viability, T/C [28]: 93.9%
viability, T/C [31]: 73.8%
viability, T/C [32]: 53.8%
viability, T/C [33]: 70.5%
viability, T/C [34]: 84.8%
viability, T/C [35]: 102%
viability, T/C [36]: 74.5%
viability, T/C [37]: 45.7%
viability, T/C [38]: 31.2%
viability, T/C [39]: 61.7%
viability, T/C [40]: 54.3%
viability, T/C [41]: 94.9%
viability, T/C [42]: 42.3%

IC50 [1]: 5.01 µM
IC50 [2]: 4.25 µM
IC50 [3]: 3.89 µM
IC50 [4]: 3.47 µM
IC50 [29]: 4.74 µM
IC50 [30]: 2.43 µM
Compound: CC1(C)CCC(CN2CCN(c3ccc(C(=O)NS(=O)(=O)c4ccc(NCC5CCOCC5)c([N+](=O)[O-])c4)c(Oc4cnc5[nH]ccc5c4)c3)CC2)=C(c2ccc(Cl)cc2)C1 + Cc1nc(NC(=O)N2CCCC2C(N)=O)sc1-c1ccnc(C(C)(C)C(F)(F)F)c1
viability, T/C [5]: 86.7%
viability, T/C [6]: 69.7%
viability, T/C [7]: 119%
viability, T/C [8]: 42.6%
viability, T/C [9]: 84.3%
viability, T/C [10]: 4.12%
viability, T/C [11]: 97.7%
viability, T/C [12]: 67.1%
viability, T/C [13]: 98.3%
viability, T/C [14]: 87.8%
viability, T/C [15]: 65.6%
viability, T/C [16]: 4.95%
viability, T/C [17]: 67.2%
viability, T/C [18]: 58.8%
viability, T/C [19]: 72.7%
viability, T/C [20]: 70.4%
viability, T/C [21]: 58.6%
viability, T/C [22]: 6.66%
viability, T/C [23]: 65.9%
viability, T/C [24]: 67.7%
viability, T/C [25]: 82.7%
viability, T/C [26]: 72.6%
viability, T/C [27]: 54.1%
viability, T/C [28]: 3.59%
viability, T/C [31]: 73.6%
viability, T/C [32]: 62.2%
viability, T/C [33]: 104%
viability, T/C [34]: 72.2%
viability, T/C [35]: 74.2%
viability, T/C [36]: 5.23%
viability, T/C [37]: 81.1%
viability, T/C [38]: 89.8%
viability, T/C [39]: 57.6%
viability, T/C [40]: 78.8%
viability, T/C [41]: 42%
viability, T/C [42]: 2.17%

IC50 (curve of compound): 8.66 µM and 9.74 µM
Compound: C=CC(=O)N1CCN(c2nc(=O)n(-c3c(C)ccnc3C(C)C)c3nc(-c4c(O)cccc4F)c(F)cc23)C(C)C1 (stereo not given)
viability, T/C (compound 0.0316 µM): 90.5% and 112%
viability, T/C (compound 0.1 µM): 107% and 70.5%
viability, T/C (compound 0.316 µM): 70.2% and 97.6%
viability, T/C (compound 1 µM): 104% and 120%
viability, T/C (compound 3.16 µM): 85.3% and 104%
viability, T/C (compound 10 µM): 44.3% and 48.8%
